Columns and labels:
[1] = tested on: patients with moderate to severe AA; assay: Oral ruxolitinib in three patients with moderate to severe AA (hair regrowth, biopsies); type: in vivo, human
Description: Skin punch biopsies (4 mm) were obtained at baseline and after 12 weeks of treatment.
For immunohistochemical studies of human skin, 5 μM formalin fixed and paraffin skin section were used. […] ImmPRESS HRP Anti Rabbit Ig or Mouse Ig (Peroxidase) Polymer (Vector Lab) were used as secondary antibody.
The IFN and CTL signatures were used to develop a bivariate score statistic. Individual signature IFN and CTL scores were determined following procedures used in human SLE. The sets of genes selected to comprise the IFN and CTL signatures were CD8A, GZMB, and ICOS for the CTL signature, and CXCL9, CXCL10, CXCL11, STAT1, and MX1 for the IFN signature.

[2] = tested on: patients with moderate to severe AA; assay: Open-label trial of oral ruxolitinib in 12 patients with moderate to severe AA: hair regrowth (SALT); type: in vivo, human
Source text: (§1) The study's primary efficacy endpoint was the proportion of responders at end of treatment, defined as those subjects achieving at least 50% regrowth compared to baseline assessed by the Severity of Alopecia Tool (SALT) score, a standardized, validated method for estimating hair loss in AA. Secondary efficacy endpoints included hair re-growth as a continuous variable. […] To assess response durability, responders were followed for 3 months after treatment was completed. Safety analysis was included as a secondary endpoint for all subjects who received at least one dose of ruxolitinib and was monitored as described at monthly visits.

[3] = tested on: ALADIN CTL, IFN and KRT signatures; assay: Skin biopsy gene expression / ALADIN scores in ruxolitinib trial; type: in vivo, human
Source text: Biopsies and peripheral blood were obtained at baseline and after 12 weeks for immune monitoring and molecular studies. Several patients provided additional biopsies at intermediate time points during the course of treatment, and one patient provided an additional sample at week 24. Tissues specimens were fixed and stored in PAXgene Tissue Containers. Total RNA was extracted from skin biopsy specimens harvested during the course of the clinical trial using the PAXgene tissue miRNA kit. Library prep was performed for microarray analysis using Ovation RNA Amplification System V2 and Biotin Encore kits (NuGen Technologies, Inc., San Carlos, Calif.). Samples were subsequently hybridized to Human Genome U133 Plus 2.0 chips (Affymetrix, Santa Clara, Calif.) and scanned at the Yale Center for Genome Analysis. Library prep and microarray hybridization of RNA extracted from skin biopsies from three healthy controls were performed together with the samples from the treated patients for a total of 31 samples. Gene expression analyses included calculation of ALADIN scores, differential expression analysis of the expression levels for the identification of gene expression signatures, principal component analysis, and statistical analysis of the ALADIN scores. Microarray data from the 31 samples have been deposited in GEO under accession number GSE80342.
ALADIN scores were calculated for all […] using the batch corrected expression data. The CTL, IFN, and KRT ALADIN scores were determined following procedures outlined previously. Briefly, z-scores are calculated for each PSID relative to the mean and standard deviation of normal controls. Scores for each gene are obtained by averaging z-scores of PSIDs mapping to that gene. Signature scores are then calculated averages of the scores for genes belonging to the corresponding signature.
In order to examine possible differences between each of the CTL, IFN, and KRT ALADIN scores in responders and non-responders, in responders and normal controls and in non-responders and normal controls, the inventors tested for differences among the three groups using a Kruskal-Wallis test, followed by Wilcoxon Rank Sum tests as implemented in the coin package in R. The inventors then examined the change between baseline and ALADIN scores at 12 weeks for responders using Wilcoxon Signed Rank test as implemented in the coin package in R. The inventors further tested for differences in the three scores between responders at 12 weeks and normal controls.

[4] = tested on: patients with moderate to severe AA; assay: Adverse events in ruxolitinib trial; settings: in vivo
Source text: as §1
Adverse events were assessed at every monthly visit. Patients were also encouraged to contact the study center in the interim between visits if they developed new signs or symptoms of concern.

[5] = tested on: C3H/HeJ grafted mice; assay: Prevention of AA in C3H/HeJ skin graft model, systemic treatment from time of grafting; type: in vivo, mouse; settings: systemic administration from the time of grafting
Source text: IL-2 and IL-15 are well-known drivers of cytotoxic activity by IFN-γ-producing CD8+ effector T cells and NK cells and have been implicated in the induction and/or maintenance of autoreactive CD8+ T cells. To test the efficacy of IFN-γ- and γ c-targeted therapies in vivo, the inventors used the well-established graft model of AA, in which skin grafts from mice with spontaneous AA are transferred onto the backs of unaffected 10-week-old recipient C3H/HeJ mice. In this model, AA develops reliably in 95-100% of grafted recipients within 6-10 weeks, allowing us to test interventions aimed at either preventing or reversing disease.
C3H/HeJ mouse strain (Jackson Laboratories, Bar Harbor, Me.) was used for all animal studies. Only female mice were used. Mouse recipients of alopecic skin grafts were aged 7-10 weeks at the time of grafting. For prevention experiments, drug administration began the day after grafting. For systemic treatment studies, drug administration was initiated approximately 3 months after mice lost their hair. For topical treatment studies, drug administration was initiated 20 weeks following grafting. […]
For the prevention experiments, a time-to-event survival analysis for interval censored data was performed. […] Hair growth index was calculated.

[6] = tested on: CTL effectors from C3H/HeJ mice; assay: IL-15 responses in cultured CTL effectors; type: cell-based, mouse
[7] = tested on: dermal sheath cells; assay: CTL killing of dermal sheath cells; type: cell-based, mouse
[8] = tested on: C3H/HeJ grafted mice with established AA; assay: Systemic treatment of established AA in grafted C3H/HeJ mice; type: in vivo, mouse
Source text: C3H/HeJ mouse strain (Jackson Laboratories, Bar Harbor, Me.) was used for all animal studies. Only female mice were used. Mouse recipients of alopecic skin grafts were aged 7-10 weeks at the time of grafting. For prevention experiments, drug administration began the day after grafting. […] For topical treatment studies, drug administration was initiated 20 weeks following grafting. All animal procedures were done according to protocols approved by the Columbia University Medical Center Institutional Animal Care and Use Committee.

[9] = tested on: C3H/HeJ mice with long-standing AA; assay: Topical treatment of established AA in grafted C3H/HeJ mice; type: in vivo, mouse; settings: applied to back skin
Source text: This experiment was repeated three times. […] NS, not significant. […] Scale bar, 100 μm. […] Scale bar, 200 μm.
Only female mice were used.

[10] = tested on: CXCL10; assay: Serum CXCL10 ELISA in tofacitinib-treated AA patient; type: in vivo, human; settings: baseline vs 4 weeks of treatment
Description: (§2) Punch biopsies of the scalp (FIG. 17) and blood draws were performed at baseline and after 4 weeks of treatment to monitor gene expression and biomarker changes. […] In addition, microarray analysis was performed on the skin biopsy samples.

[11] = tested on: ALADIN IFN and CTL signatures; assay: ALADIN scores of scalp biopsies in tofacitinib-treated AA patient; type: in vivo, human; settings: baseline vs 4 weeks of treatment
Description: as §2

[12] = tested on: patient with persistent moderate/severe AA; assay: Oral tofacitinib in one patient with persistent moderate/severe AA (hair regrowth, safety)
[13] = systemic therapy initiated 7 weeks after grafting

`N#CC[C@H](C1CCCC1)n1cc(-c2ncnc3[nH]ccc23)cn1` [ruxolitinib] was tested, and the regrowth achieved ([1]; oral 20 mg BID for at least 3 months) was “over 90%”, the “time to near-complete hair regrowth” value ([1]; oral, 20 mg twice daily) was 3 to 5 months and the “proportion of patients achieving the primary outcome of at least 50% regrowth” value ([2]; 20 mg PO twice daily, 3 to 6 months, nine of twelve patients) was 75%. For the same compound, the “mean SALT score at 3 months” value ([2]; baseline 65.8±28.0%) was 24.8±22.9%, the “mean SALT score at the end of 6 months of treatment” value ([2]; baseline 65.8±28.0%, p<0.004) was 7.3±13.5% and the “average hair regrowth at the end of treatment” value ([2]; nine responding patients) was 92%. For the same compound, the “reduction in hair loss from baseline, responders as a group” value ([2]; responders) was 92%, the “CTL score at week 12, overall” value ([3]; all patients, baseline 8.30, p<0.004) was 1.51 and the “IFN score at week 12, overall” value ([3]; all patients, baseline 31.08, p<0.004) was −0.37. For the same compound, the “KRT score at week 12, overall” value ([3]; all patients, baseline −39.36, p=0.054) was −15.02, the “CTL score at week 12, responders only” value ([3]; baseline 9.37, p<0.008) was 1.6 and the “IFN score at week 12, responders only” value ([3]; baseline 38.37, p<0.008) was 0.24. The “KRT score at week 12, responders only” value ([3]; baseline −37.84, p=0.039) was −15.42, the “earliest time decreased IFN and CTL scores were demonstrable after the initiation of treatment” value ([3]; post-treatment biopsies) was 2 weeks and the URI/allergy symptoms ([4]; human) was 9 episodes. For the same compound, the GI symptoms [4] was “mild GI symptoms”, the UTI [4] was “one UTI” and the “acne or scalp folliculitis” value [4] was “Two patients developed lesions consistent with acne or scalp folliculitis”. For the same compound, the bacterial skin infections [4] was “three minor bacterial skin infections (in the same patient)”, the conjunctival hemorrhage [4] was “one conjunctival hemorrhage following a surgical procedure” and the discontinuation of therapy [4] was “no patients required discontinuation of therapy”. The hemoglobin [4] was “One patient developed lowered hemoglobin, which resolved with dose modification”, the hepatic abnormalities [4] was “No hepatic abnormalities were observed” and the platelet counts [4] was “No significant decline in platelet counts”. The pneumonia [4] was “one mild pneumonia”, the serious adverse effects [4] was “no serious adverse effects” and the “white blood cell counts” value [4] was “modest declines of white blood cell counts initially but levels remained within normal limits”.

In the case of `C[C@@H]1CCN(C(=O)CC#N)C[C@@H]1N(C)c1ncnc2[nH]ccc12` [tofacitinib], the “AA development in grafted recipients” value [5] is reported as “prevented the development of AA”, the “CD8+NKG2D+ T cells in the skin (infiltration, accumulation, expansion)” value [5] is reported as “prevented” and the “IL-15-induced upregulation of granzyme B and IFN-γ expression” value [6] is reported as “blocked”. The “IL-15-triggered pSTAT5 activation” value ([6]; cultured CTL effectors) was “blocked”, the “killing of dermal sheath cells” value [7] was “blocked” and the “persistence of effects after the cessation of treatment” value ([8]; systemic therapy) was 2-3 months. The “frequency of CD8+NKG2D+ T cells” value [8, 13] was “reduced the frequency of CD8+NKG2D+ T cells”, the hair regrowth [8, 13] was “substantial hair regrowth all over the body” and the histological markers [8, 13] was “reversed histological markers”. For the same compound, the “reversal of disease in treated lesions” value [9] was “highly effective in reversing disease in treated lesions”, the “serum levels of CXCL10” value [10] was “decreased after 4 weeks of treatment” and the “IFN and CTL signatures (ALADIN)” value [11] was “decreased by 4 weeks of treatment, although not to the level of normal controls”. For the same compound, the “hair loss 8 weeks following cessation of treatment” value ([12]; FIG. 16 left panel) was “Minimal hair loss”, the “hair loss 16 weeks following cessation of treatment” value ([12]; FIG. 16 right panel) was “almost complete loss of scalp hair” and the “outcome after cessation of treatment” value ([12]; human, in vivo) was “near-complete hair loss”. For the same compound, the adverse events ([12]; oral 5 mg twice daily) was “no adverse events reported”, the “hair regrowth at month 1” value ([12]; oral 5 mg twice daily) was “Patchy regrowth” and the “laboratory abnormalities (complete blood count, complete metabolic panel, lipid profile)” value ([12]; oral 5 mg twice daily) was “no laboratory abnormalities”. For the same compound, the “regrowth of eyebrows and eyelashes” value ([12]; oral 5 mg twice daily) was “Significant regrowth”, the “scalp hair regrowth 4 months after initiating treatment” value ([12]; oral 5 mg twice daily) was “nearly complete” and the “scalp hair regrowth after three months of treatment” value ([12]; oral 5 mg twice daily) was 94%. For the same compound, the “scalp hair regrowth after two months of treatment” value ([12]; oral 5 mg twice daily) was 62.5%.

From patent US20190072541A1, “BIOMARKERS FOR TREATMENT OF ALOPECIA AREATA” (THE TRUSTEES OF COLUMBIA UNIVERSITY IN THE CITY OF NEW YORK, priority 2015, published 2019)
